Data: US20110201648A1, “POLY-HETEROARYL DERIVATIVES FOR THE TREATMENT OF CANCER” (INSTITUT CURIE, priority 2008, published 2011)

Q: Which melting point does the source give for `c1ccc(-c2ncc(-c3cccc(-c4cnc(-c5ccccn5)o4)n3)o2)nc1` [compound 1, 2,6-Bis[2-(pyridin-2-yl)oxazol-5-yl]pyridine] here?
A: 242 to 245 °C

Q: With `c1cc(-c2cnc(-c3cccc(-c4cnco4)n3)o2)cc(-c2cnc(-c3cccc(-c4cnco4)n3)o2)c1` [compound 4, 1,3-Bis(2-(6-(oxazol-5-yl)pyridin-2-yl)oxazol-5-yl)benzene] as the compound, how does the melting point read?
A: > 250 °C

Q: With `c1cc(-c2cnco2)cc(-c2ncc(-c3cccc(-c4cnc(-c5cccc(-c6cnco6)c5)o4)n3)o2)c1` [compound 5, 2,6-Bis(2-(3-(oxazol-5-yl)phenyl)oxazol-5-yl)pyridine] as the compound, how does the melting point read?
A: 254 to 256 °C

Q: For `c1cc(-c2cnc(-c3ccc(-c4cnco4)o3)o2)nc(-c2cnc(-c3ccc(-c4cnco4)o3)o2)c1` [compound 6, 2,6-Bis(2-(5-(oxazol-5-yl)furan-2-yl)oxazol-5-yl)pyridine], which melting point is on record?
A: > 250 °C
